For one test, the system named is LS174T cell line. The test is described as follows: Growth inhibition, CyQUANT Direct Cell Proliferation Assay, LS174T. To be noted: Homo sapiens, 120 to 168 hours, read-out: LS174T GI50. It is filed as cell-based. The gist of the method: (§1)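 Cells seeded 300 to 1,800 per well, day-0 CyQUANT Direct read after overnight attachment; 9-point 3-fold dilutions from 30 μM top concentration, 120 to 168 h exposure, 0.3% DMSO control. Fluorescence Ex/Em 480/520 nm; growth inhibition normalised to day-0 and untreated day-N signals, GI50 at 50% of untreated control.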

Another test concerns CW2 cell line. The test is described as follows: Growth inhibition, CyQUANT Direct Cell Proliferation Assay, CW2. The test is classed as cell-based. To be noted: Homo sapiens, CW-2; CW2, 120 to 168 hours; read-out: CW2 GI50. The gist of the method: as §1
For the next test, the system named is GP2D cell line. The test is described as follows: Growth inhibition, CyQUANT Direct Cell Proliferation Assay, GP2D. It is filed as cell-based. The conditions noted are these: GP2D, 120 to 168 hours; read-out: GP2D GI50. A digest of the protocol:
as §1

The target in another test is CRBN/DDB1 (Homo sapiens, UniProt Q96SW2). Put plainly: HTRF binding assay (displacement of Cy5-thalidomide probe from CRBN/DDB1). To be noted: CRBN/DDB1 2.5 nM, Cy5-Thalidomide 100 nM, 30 min; geometric mean; read-out: HTRF_Thali_Disp_DR_geo_IC50. The gist of the method: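 Compounds in a 10-point threefold dilution series were incubated 30 min at ambient temperature with 2.5 nM CRBN/DDB1, 100 nM Cy5-thalidomide probe and terbium anti-His donor (HEPES/NaCl/TCEP/EDTA/Tween20 buffer). IC50 came from 4-parameter fits of the 665/620 nm HTRF ratio; Ki used Cheng-Prusoff on geometric-mean IC50.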
A general note: Time-resolved FRET reads energy transfer from a long-lived donor to a nearby acceptor.

Each structure is given as a SMILES string.

CRBN/DDB1, sequence (Q96SW2 whole entry, species assumed): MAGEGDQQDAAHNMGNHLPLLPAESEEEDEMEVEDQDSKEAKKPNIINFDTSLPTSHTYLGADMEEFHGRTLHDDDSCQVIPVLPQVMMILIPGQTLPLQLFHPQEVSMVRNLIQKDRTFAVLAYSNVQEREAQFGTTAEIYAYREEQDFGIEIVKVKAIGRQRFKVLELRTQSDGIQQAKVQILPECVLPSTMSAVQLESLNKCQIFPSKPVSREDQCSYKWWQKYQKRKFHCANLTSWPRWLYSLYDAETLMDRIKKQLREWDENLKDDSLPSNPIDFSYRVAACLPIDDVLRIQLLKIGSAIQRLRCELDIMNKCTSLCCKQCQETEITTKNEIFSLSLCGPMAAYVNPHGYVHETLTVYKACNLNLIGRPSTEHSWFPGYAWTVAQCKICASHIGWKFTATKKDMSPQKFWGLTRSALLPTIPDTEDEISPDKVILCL
CRBN/DDB1, sequence (Q16531 whole entry partner, species assumed): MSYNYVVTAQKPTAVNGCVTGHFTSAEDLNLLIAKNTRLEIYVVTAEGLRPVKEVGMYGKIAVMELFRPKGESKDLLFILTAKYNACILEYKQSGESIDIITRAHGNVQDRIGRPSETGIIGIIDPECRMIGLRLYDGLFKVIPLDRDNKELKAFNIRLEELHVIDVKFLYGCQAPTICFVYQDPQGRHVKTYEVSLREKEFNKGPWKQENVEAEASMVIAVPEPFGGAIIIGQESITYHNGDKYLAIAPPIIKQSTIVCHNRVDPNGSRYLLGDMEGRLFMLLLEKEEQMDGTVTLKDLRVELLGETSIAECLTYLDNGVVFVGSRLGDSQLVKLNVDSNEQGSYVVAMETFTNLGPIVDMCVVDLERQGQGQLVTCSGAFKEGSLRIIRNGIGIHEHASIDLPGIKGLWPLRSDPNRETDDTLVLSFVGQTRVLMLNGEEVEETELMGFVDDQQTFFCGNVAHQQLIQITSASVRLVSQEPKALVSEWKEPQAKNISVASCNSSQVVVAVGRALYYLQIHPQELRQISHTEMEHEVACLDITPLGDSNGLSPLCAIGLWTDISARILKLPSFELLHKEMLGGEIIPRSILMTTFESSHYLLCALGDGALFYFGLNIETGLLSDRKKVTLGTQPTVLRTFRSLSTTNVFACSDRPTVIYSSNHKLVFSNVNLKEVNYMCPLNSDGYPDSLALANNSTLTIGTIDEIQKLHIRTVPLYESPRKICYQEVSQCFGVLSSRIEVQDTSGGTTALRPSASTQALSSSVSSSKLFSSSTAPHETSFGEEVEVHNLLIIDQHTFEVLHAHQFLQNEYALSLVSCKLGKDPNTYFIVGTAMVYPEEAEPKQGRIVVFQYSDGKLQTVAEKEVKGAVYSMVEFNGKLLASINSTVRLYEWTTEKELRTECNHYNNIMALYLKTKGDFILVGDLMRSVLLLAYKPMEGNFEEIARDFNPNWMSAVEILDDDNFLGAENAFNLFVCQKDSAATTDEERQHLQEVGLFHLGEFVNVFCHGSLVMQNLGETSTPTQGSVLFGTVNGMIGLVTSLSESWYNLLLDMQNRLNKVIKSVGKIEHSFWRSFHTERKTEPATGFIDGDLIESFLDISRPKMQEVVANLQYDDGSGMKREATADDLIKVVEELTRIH

For orientation: GI50 means the concentration giving 50% growth inhibition. As to `C[C@@H]1Cc2ccccc2N1C(=O)Nc1ccc2c(c1)CN(C1CCC(=O)NC1=O)C2=O` (stereo partly drawn) [Compound 102, (2R)—N-(2-(2,6-dioxopiperidin-3-yl)-1-oxoisoindolin-5-yl)-2-methylindoline-1-carboxamide], the GI50 was 100 to 1000 nM in the test with LS174T cell line, less than 100 nM in the test on CW2 cell line and 100 to 1000 nM with GP2D cell line. Moreover, the IC50 at CRBN/DDB1 was 100 to 1000 nM.
